Legend:
TMD8 = test: Combined drug treatment cell viability (CellTiter-Glo), ibrutinib with BET inhibitors, TMD8; assay type: cell-based; conditions: JQ1 20 nM, 3 days
Procedure: (§1) The DLBCL cell lines used during the experiments included TMD8, OCI-LY3, OCI-LY10, U-2932 and SU-DHL-2. DLBCL cells at either 1×10^4 cells or 2×10^4 cells were plated onto each well of a 96-W plate (Table 1). […] The 96-W plate was then incubated for 3 days. Cell viability was examined using a CellTiter-Glo assay. A 40 μL of CellTiter-Glo reagent was added directly into each well of the 96-W plate. The plate was then shaken on a Shaker ([…]) at speed 5 for 10-20 min at room temperature. Next, about 100 μL of the mixed medium was transferred to a white, non-transparent, flat bottom 96-W plate for assaying. […] Measurements were taken at room temperature. CellTiter-Glow reagents were thawed prior to use. Cells pre-plated onto a second 96-W plate and incubated at room temperature for 30 minutes were used for calibration purposes. […] CI is a quantitative description of the interaction property of the combination of two drugs.

OCI-LY10 = test: Combined drug treatment cell viability (CellTiter-Glo), ibrutinib with BET inhibitors, OCI-LY10; assay type: cell-based; conditions: OCI-LY-10, JQ1 1 uM, 3 days
Procedure: as §1

OCI-LY3 = test: Combined drug treatment cell viability (CellTiter-Glo), ibrutinib with BET inhibitors, OCI-LY3; assay type: cell-based; conditions: OCI-LY-3, JQ1 1 uM, 3 days
Procedure: as §1

U-2932 = test: Combined drug treatment cell viability (CellTiter-Glo), ibrutinib with BET inhibitors, U-2932; assay type: cell-based; conditions: U2932, JQ1 20 nM, 3 days
Procedure: as §1

SU-DHL-2 = test: Combined drug treatment cell viability (CellTiter-Glo), ibrutinib with BET inhibitors, SU-DHL-2; assay type: cell-based; conditions: JQ1 100 nM, 3 days
Procedure: as §1

YAC-1 (target cells) = test: NK cell cytotoxicity of splenocytes from treated mice (A20 model); assay type: in vivo; conditions: combination of JQ1 with ibrutinib, splenocytes after 14 days of treatment, co-cultured with YAC-1 for 4 hours
Procedure: To determine the drug effect on NK cell cytotoxicity, splenocytes (effector cells) were harvested from mice after 14 days of treatment. The splenocytes were co-cultured with YAC-1 (target cells) for 4 hours. The percentage of target cell death (PI-positive cells) was analyzed by flow cytometry.

[1] = ibrutinib 0 nM (BET inhibitor alone): I-BET151 5 uM, OTX015 1 uM
[2] = ibrutinib 0.0256 nM with I-BET151 5 uM, OTX015 1 uM or medium alone (row)
[3] = ibrutinib 0.64 nM with I-BET151 5 uM, OTX015 1 uM or medium alone (row)
[4] = ibrutinib 3.2 nM with I-BET151 5 uM, OTX015 1 uM or medium alone (row)
[5] = ibrutinib 16 nM with I-BET151 5 uM, OTX015 1 uM or medium alone (row)
[6] = ibrutinib 80 nM with I-BET151 5 uM, OTX015 1 uM or medium alone (row)
[7] = ibrutinib 400 nM with I-BET151 5 uM, OTX015 1 uM or medium alone (row)
[8] = ibrutinib 2000 nM with I-BET151 5 uM, OTX015 1 uM or medium alone (row)
[9] = ibrutinib 10000 nM with I-BET151 5 uM, OTX015 1 uM or medium alone (row)
[10] = ibrutinib […] with I-BET151 5 uM, OTX015 1 uM or medium alone (row)

Cc1sc2c(c1C)C(c1ccc(Cl)cc1)=N[C@@H](CC(=O)OC(C)(C)C)c1nnc(C)n1-2 [JQ1]
luminescent signals (TMD8; ibrutinib 0 nM (BET inhibitor alone): I-BET151 200 nM, OTX015 100 nM): 59694.27 | luminescent signals (TMD8; ibrutinib 0.0256 nM with I-BET151 200 nM, OTX015 100 nM or medium alone (row)): 18249.87 | luminescent signals (TMD8; ibrutinib 0.64 nM with I-BET151 200 nM, OTX015 100 nM or medium alone (row)): 16842.39 | luminescent signals (TMD8; ibrutinib 3.2 nM with I-BET151 200 nM, OTX015 100 nM or medium alone (row)): 16468.11 | luminescent signals (TMD8; ibrutinib 16 nM with I-BET151 200 nM, OTX015 100 nM or medium alone (row)): 16312.6 | luminescent signals (TMD8; ibrutinib 80 nM with I-BET151 200 nM, OTX015 100 nM or medium alone (row)): 15297.84 | luminescent signals (TMD8; ibrutinib 400 nM with I-BET151 200 nM, OTX015 100 nM or medium alone (row)): 15282.03 | luminescent signals (TMD8; ibrutinib 2000 nM with I-BET151 200 nM, OTX015 100 nM or medium alone (row)): 15571.96 | luminescent signals (TMD8; ibrutinib 10000 nM with I-BET151 200 nM, OTX015 100 nM or medium alone (row)): 9818.137 | luminescent signals (TMD8; ibrutinib […] with I-BET151 200 nM, OTX015 100 nM or medium alone (row)): 18911.45 | luminescent signals (OCI-LY10; [1]): 41458.59 | luminescent signals (OCI-LY10; [2]): 45492.43 | luminescent signals (OCI-LY10; [3]): 52166.4 | luminescent signals (OCI-LY10; [4]): 39783.52 | luminescent signals (OCI-LY10; [5]): 26164.72 | luminescent signals (OCI-LY10; [6]): 24844.65 | luminescent signals (OCI-LY10; [7]): 24502.8 | luminescent signals (OCI-LY10; [8]): 24579.06 | luminescent signals (OCI-LY10; [9]): 25346.91 | luminescent signals (OCI-LY10; [10]): 47932.71 | luminescent signals (OCI-LY3; [1]): 20530.28 | luminescent signals (OCI-LY3; [2]): 21973.49 | luminescent signals (OCI-LY3; [3]): 23078.2 | luminescent signals (OCI-LY3; [4]): 22419.57 | luminescent signals (OCI-LY3; [5]): 21821.3 | luminescent signals (OCI-LY3; [6]): 21944.63 | luminescent signals (OCI-LY3; [7]): 22621.62 | luminescent signals (OCI-LY3; [8]): 24841.54 | luminescent signals (OCI-LY3; [9]): 21414.57 | luminescent signals (OCI-LY3; [10]): 22582.26 | luminescent signals (U-2932; ibrutinib 0 nM (BET inhibitor alone): I-BET151 200 nM, OTX015 50 nM (Table 2)): 55050.2 | luminescent signals (U-2932; ibrutinib 0.0256 nM with I-BET151 200 nM, OTX015 50 nM (Table 2) or medium alone (row)): 52636.54 | luminescent signals (U-2932; ibrutinib 0.64 nM with I-BET151 200 nM, OTX015 50 nM (Table 2) or medium alone (row)): 46610.32 | luminescent signals (U-2932; ibrutinib 3.2 nM with I-BET151 200 nM, OTX015 50 nM (Table 2) or medium alone (row)): 47334.95 | luminescent signals (U-2932; ibrutinib 16 nM with I-BET151 200 nM, OTX015 50 nM (Table 2) or medium alone (row)): 46417.97 | luminescent signals (U-2932; ibrutinib 80 nM with I-BET151 200 nM, OTX015 50 nM (Table 2) or medium alone (row)): 49232.14 | luminescent signals (U-2932; ibrutinib 400 nM with I-BET151 200 nM, OTX015 50 nM (Table 2) or medium alone (row)): 44892.31 | luminescent signals (U-2932; ibrutinib 2000 nM with I-BET151 200 nM, OTX015 50 nM (Table 2) or medium alone (row)): 44099.18 | luminescent signals (U-2932; ibrutinib 10000 nM with I-BET151 200 nM, OTX015 50 nM (Table 2) or medium alone (row)): 33551.32 | luminescent signals (U-2932; ibrutinib […] with I-BET151 200 nM, OTX015 50 nM (Table 2) or medium alone (row)): 54454.69 | luminescent signals (SU-DHL-2; ibrutinib 0 nM (BET inhibitor alone): I-BET151 2 uM, OTX015 1 uM (Table 2)): 17739.9 | luminescent signals (SU-DHL-2; ibrutinib 0.0256 nM with I-BET151 2 uM, OTX015 1 uM (Table 2) or medium alone (row)): 22662.83 | luminescent signals (SU-DHL-2; ibrutinib 0.64 nM with I-BET151 2 uM, OTX015 1 uM (Table 2) or medium alone (row)): 19308.19 | luminescent signals (SU-DHL-2; ibrutinib 3.2 nM with I-BET151 2 uM, OTX015 1 uM (Table 2) or medium alone (row)): 25589.27 | luminescent signals (SU-DHL-2; ibrutinib 16 nM with I-BET151 2 uM, OTX015 1 uM (Table 2) or medium alone (row)): 20485.07 | luminescent signals (SU-DHL-2; ibrutinib 80 nM with I-BET151 2 uM, OTX015 1 uM (Table 2) or medium alone (row)): 19823.08 | luminescent signals (SU-DHL-2; ibrutinib 400 nM with I-BET151 2 uM, OTX015 1 uM (Table 2) or medium alone (row)): 23679.47 | luminescent signals (SU-DHL-2; ibrutinib 2000 nM with I-BET151 2 uM, OTX015 1 uM (Table 2) or medium alone (row)): 29411.5 | luminescent signals (SU-DHL-2; ibrutinib 10000 nM with I-BET151 2 uM, OTX015 1 uM (Table 2) or medium alone (row)): 3706.648 | luminescent signals (SU-DHL-2; ibrutinib […] with I-BET151 2 uM, OTX015 1 uM (Table 2) or medium alone (row)): 19174.22 | NK cytotoxicity (percentage of target cell death, PI-positive cells) (YAC-1 (target cells)): enhanced NK cytotoxicity

Reference: US20160022684A1, “BET INHIBITOR AND BRUTON'S TYROSINE KINASE INHIBITOR COMBINATIONS” (Pharmacyclics LLC, priority 2014, published 2016)
